Laboratory results reported in article PMC3608651, “A Broad Profile of Co-Dominant Epitopes Shapes the Peripheral Mycobacterium tuberculosis Specific CD8+ T-Cell Immune Response in South African Patients with Active Tuberculosis” (PLoS ONE, 2013).
Read-outs that look alike come from different tables or passages of the source.

Tests used:
Format in all cases: binding
HLA-B*58:01 [1] = target: T1, HLA-B*58:01 (Homo sapiens, UniProt P01889, A329T/C349S/D201E/D98Y/E176V/E187L/E204Q/E69T/G107R/I218V/I90N/K202T/L105A/L119I/N104I/N87E/Q89R/Q94S/R106L/R155S/R180L/R86G/S101N/S121R/S35A/S48A/T118I/V127L/V306I/V36M/Y140S/Y91M); details: duplicated experiments, positive binder >40%
HLA-A*68:01 [2] = target: T2, HLA-A*68:01 (Homo sapiens, UniProt P04439, A269V/D185E/E176V/E277Q/E87N/F33Y/G231S/I121M/I166T/I218V/L180W/L300P/L318F/N151K/P208A/P217A/Q86R/R169H/T345S); details: duplicated experiments, positive binder >40%
HLA-B*07:02 = HLA-B*07:02 (Homo sapiens, UniProt P01889); details: percent relative the binding of positive control peptide […]; duplicated experiments; positive binder >40%
HLA-A*02:01 [3] = target: T3, HLA-A*02:01 (Homo sapiens, UniProt P04439, D140Y/D185E/D98H/E176V/E277Q/G131W/G231S/I119V/I121R/I166T/I218V/L300P/L318F/N151K/N90K/P208A/P217A/Q86G/Q94H/R138H/R169H/T345S); details: time points 0-8 h; time when 50% of peptide has dissociated
HLA-A*30:02 [4] = target: T4, HLA-A*30:02 (Homo sapiens, UniProt P04439, D101N/D140H/D185E/E176R/F33S/G80R/H175R/K168Q/Q94H/R138E/R41S/V100E); details: duplicated experiments, positive binder >40%
HLA-A*24:02 = HLA-A*24:02 (Homo sapiens, UniProt P04439, D101N/D140Y/D185E/E176V/E190D/F33S/G103R/G107R/I119L/I121M/I306V/K335N/L105A/L180Q/L300P/N151K/N90K/Q86E/Q94H/R106L/R138H/R89G/T104I/T345S/V100E/W191G/Y123F); details: duplicated experiments, positive binder >40%
HLA-A*02:01 [5] = target: T3, HLA-A*02:01; details: plate-bound monomer 0.5 µg/ml, duplicated experiments, positive binder >40%
HLA-A*30:01 = HLA-A*30:01 (Homo sapiens, UniProt P04439, D140H/D185E/E176W/F33S/G80R/H175R/K168Q/R138E/R41S); details: duplicated experiments, positive binder >40%
HLA-C*07:01 = HLA-C*07:01 (Homo sapiens, UniProt P10321, K90N/S123Y); details: duplicated experiments, positive binder >40%
HLA-A*02:01 [6] = target: T3, HLA-A*02:01; details: peptide quantity for 50% binding saturation
HLA-A*30:02 [7] = target: T4, HLA-A*30:02
HLA-A*30:02 [8] = target: T4, HLA-A*30:02; details: time points 0-8 h
HLA-A*68:01 [9] = target: T2, HLA-A*68:01; details: time points 0-8 h
HLA-A*68:01 [10] = target: T2, HLA-A*68:01
HLA-B*58:01 [11] = target: T1, HLA-B*58:01; details: time points 0-8 h
HLA-B*58:01 [12] = target: T1, HLA-B*58:01
[13] = percent relative the binding of positive control peptide IAMESIVIW
[14] = percent relative the binding of positive control peptide KTGGPIYKR
[15] = percent relative the binding of positive control peptide KIQNFRVYY
[16] = percent relative the binding of positive control peptide RYLKDQQLL
[17] = percent relative the binding of positive control peptide FLPSDFFPSV
[18] = percent relative the binding of positive control peptide KTKDIVNGL
[19] = percent relative the binding of positive control peptide KYFDEHYEY
[20] = peptide titrated 10−4 to 10−9 M
[21] = percent relative the binding of positive control peptide […]

| Substance | Bind B*58:01 (HLA-B*58:01 [1]; [13]) [%] | Bind A*68:01 (HLA-A*68:01 [2]; [14]) [%] | Bind B*07:02 (HLA-B*07:02) [%] | O-rate A*02:01 (t1/2) (HLA-A*02:01 [3]) [h] | Bind A*30:02 (HLA-A*30:02 [4]; [15]) [%] | Bind A*24:02 (HLA-A*24:02; [16]) [%] | Bind A*02:01 (HLA-A*02:01 [5]; [17]) [%] | Bind A*30:01 (HLA-A*30:01; [18]) [%] | Bind C*07:01 (HLA-C*07:01; [19]) [%] | Aff A*02:01 (ED50) (HLA-A*02:01 [6]; [20]) [M] | O-rate A*30:02 (t1/2) (HLA-A*30:02 [8]) [h] | Bind A*30:02 (HLA-A*30:02 [4]; [21]) [%] | Bind A*02:01 (HLA-A*02:01 [5]; [21]) [%] | Aff A*02:01 (ED50) (HLA-A*02:01 [6]; […]) | Bind A*68:01 (HLA-A*68:01 [2]; [21]) [%] | further results |
| --- | --- | --- | --- | --- | --- | --- | --- | --- | --- | --- | --- | --- | --- | --- | --- | --- |
| ALQNLARTI [Rv3875_68–76] | 0 | 0 | 8 | 1.7 | 17 | 0 | 73 | 0 | 0 | 3e-08 | – | – | – | – | – | – |
| AMASTEGNV [Rv3875_82–90] | 0 | 0 | 11 | 1.0 | 102 | 0 | 87 | 0 | 3 | 3e-08 | 2.5 | – | – | – | – | Aff A*30:02 (ED50) (HLA-A*30:02 [7]; [20]): 0.007 µM |
| AMLDHAGDM [Rv0288_10–18m2] | – | – | – | 1.1 | – | – | – | – | – | – | 0.4 | 100 | 47 | 8e-08 M | – | Bind A*24:02 (HLA-A*24:02; [21]): 13%; Aff A*30:02 (ED50) (HLA-A*30:02 [7]): 0.7 µM |
| F EW YYQSG L | – | – | 11 | 0.8 | – | – | – | – | – | – | – | 26 | 124 | 7e-07 M | 10 | Bind B*58:01 (HLA-B*58:01 [1]; [21]): 0%; Bind A*24:02 (HLA-A*24:02; [21]): 37%; Bind A*30:01 (HLA-A*30:01; [21]): 10%; Bind C*07:01 (HLA-C*07:01; [21]): 15% |
| GLSIVMPVG | – | – | 0 | 2.1 | – | – | – | – | – | – | – | 0 | 100 | 7e-08 M | 0 | Bind B*58:01 (HLA-B*58:01 [1]; [21]): 0%; Bind A*24:02 (HLA-A*24:02; [21]): 0%; Bind A*30:01 (HLA-A*30:01; [21]): 0%; Bind C*07:01 (HLA-C*07:01; [21]): 0% |
| GT HSWEYWG | – | – | 3 | 0.3 | – | – | – | – | – | – | 2.2 | 79 | 43 | 2E -06 M | 71 | O-rate A*68:01 (t1/2) (HLA-A*68:01 [9]): 0.2 h; Bind B*58:01 (HLA-B*58:01 [1]; [21]): 58%; Bind A*24:02 (HLA-A*24:02; [21]): 2%; Aff A*30:02 (ED50) (HLA-A*30:02 [7]): 30 µM; Aff A*68:01 (ED50) (HLA-A*68:01 [10]): 1E -05 M; O-rate B*58:01 (t1/2) (HLA-B*58:01 [11]): 2.9 h; Bind A*30:01 (HLA-A*30:01; [21]): 0%; Bind C*07:01 (HLA-C*07:01; [21]): 25%; Aff B*58:01 (ED50) (HLA-B*58:01 [12]): 0.3 µM |
| HSMSSTHEA [Rv0288_70–78m1] | – | – | – | 0.3 | – | – | – | – | – | – | 0.9 | 39 | 45 | 0.001 M | 0 | Aff A*30:02 (ED50) (HLA-A*30:02 [7]): 0.006 µM |
| IQGNVTSIH [Rv3875_18–26] | 7 | 17 | 3 | 0.2 | 36 | 0 | 51 | 13 | 5 | 1e-06 | – | – | – | – | – | – |
| KLAAAWGGS [Rv3875_38-46] | 21 | 0 | 6 | 2 | 39 | 33 | 57 | 0 | 11 | 1e-07 | – | – | – | – | – | – |
| LLDEGKQSL [Rv3875_28–36] | 2 | 4 | 3 | 4.9 | 0 | 0 | 61 | 20 | 19 | 7e-07 | – | – | – | – | – | – |
| MLDHAGDMA [Rv0288_11–19m1] | – | – | – | 1.5 | – | – | – | – | – | – | – | – | 48 | 6e-08 M | – | – |
| NLARTISEA [Rv3875_71–79] | 21 | 9 | 10 | 2.3 | 17 | 11 | 72 | 15 | 12 | 4e-08 | – | – | – | – | – | – |
| SQIMYNYPT [Rv0288_2–10m1] | – | – | – | 0.7 | – | – | – | – | – | – | 0.5 | 31 | 47 | 1e-06 M | – | Aff A*30:02 (ED50) (HLA-A*30:02 [7]): 4 µM |
| VQQKWDATA [Rv3875_54–62] | 12 | 0 | 9 | 1.2 | 76 | 0 | 54 | 21 | 9 | 5e-09 | 1.6 | – | – | – | – | Aff A*30:02 (ED50) (HLA-A*30:02 [7]; [20]): 0.06 µM |
| WQGDTGITY [Rv0288_43–51] | – | – | – | – | – | – | – | – | – | – | – | – | – | – | 61 | O-rate A*68:01 (t1/2) (HLA-A*68:01 [9]): 6.0 h; Bind B*58:01 (HLA-B*58:01 [1]; [21]): 33%; Aff A*68:01 (ED50) (HLA-A*68:01 [10]): 1e-05 M; O-rate B*58:01 (t1/2) (HLA-B*58:01 [11]): 1.8 h; Bind C*07:01 (HLA-C*07:01; [21]): 0%; Aff B*58:01 (ED50) (HLA-B*58:01 [12]): 8 µM |
